PubChem BioAssay (NCI)
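Assay format: 96-well plates, 48-hour exposure. TGI denotes the concentration required for complete inhibition of growth.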

Each compound was assayed on A549 NSCLC (assay: inhibition of tumour cell growth, NCI panel, 48 h).

`Cc1ccc(N2C(=O)CS/C2=C(\C#N)c2nc3ccccc3[nH]2)cc1` and `N#C/C(c1nc2ccccc2[nH]1)=c1\s/c(=C/c2ccc(Cl)cc2)c(=O)n1-c1ccccc1` cannot be ordered by TGI: over 100 µM for the first, over 100 µM for the second.

`CN1CNc2nc(N)n(C)c(=O)c2C1` and `CCOC(=O)c1c(N)sc2c1C(C)(C(=O)OCC)CC2` (centres undefined) cannot be ordered by TGI: over 10 µM for the first, over 100 µM for the second.

Going from `CCOc1ccc(/C(Cl)=C(\C=O)c2ccc(OC)c(OC)c2)cc1OCC` to `CCOP(=O)(OCC)C(Nc1ccc(Br)cc1)c1cccc([N+](=O)[O-])c1` (centres undefined), the TGI falls from over 100 µM to 34.7 µM.

`COC(=O)C(C#CCCCCC#CC(NC(=O)OCc1ccccc1)(C(=O)OC)C(F)(F)F)(NC(=O)OCc1ccccc1)C(F)(F)F` (centres undefined) and `C=CCC(N(C)C(=O)[C@H](Cc1ccccc1)NC(=O)OCc1ccccc1)P(=O)(Oc1ccccc1)Oc1ccccc1` (some centres undefined) cannot be ordered by TGI: over 100 µM for the first, over 100 µM for the second.

`COC(=O)CC1NC(=O)[C@@H]1C(C)O` (some centres undefined) and `CCOC(=O)/C=C/n1c2ccccc2c(=O)c2ccccc21` cannot be ordered by TGI: over 100 µM for the first, over 100 µM for the second.

Compared with `O=C1c2ccccc2OP(=O)(OCC(F)(F)F)OC1(C(F)(F)F)C(F)(F)F` (centres undefined), `Cc1ccc(NC2=CC(=O)C(NO)c3ccccc32)cc1` (centres undefined) is lower in TGI: over 100 µM for the first, 10.6 µM for the second.

`COc1ccc(N=Cc2ccc(N(CCC#N)S(=O)(=O)c3ccccc3)cc2)cc1` and `Nc1nc(SCc2ccc([N+](=O)[O-])cc2)nc2c1ncn2C1OC(CO)C(O)C1O` (centres undefined) cannot be ordered by TGI: over 100 µM for the first, over 100 µM for the second.

The compounds below were run on DU-145 prostate (assay: inhibition of tumour cell growth, NCI panel, 48 h).

Going from `CN1CNc2nc(N)n(C)c(=O)c2C1` to `Cc1ccc(NC2=CC(=O)C(NO)c3ccccc32)cc1` (centres undefined), the TGI falls from over 10 µM to 7.41 µM.

`CCOP(=O)(OCC)C(Nc1ccc(Br)cc1)c1cccc([N+](=O)[O-])c1` (centres undefined) gave a TGI of over 100 µM.

What follows are compounds tested on HCT-15 colon (assay: inhibition of tumour cell growth, NCI panel, 48 h).

`Cc1ccc(N2C(=O)CS/C2=C(\C#N)c2nc3ccccc3[nH]2)cc1` and `N#C/C(c1nc2ccccc2[nH]1)=c1\s/c(=C/c2ccc(Cl)cc2)c(=O)n1-c1ccccc1` cannot be ordered by TGI: over 100 µM for the first, over 100 µM for the second.

`CN1CNc2nc(N)n(C)c(=O)c2C1` and `CCOC(=O)c1c(N)sc2c1C(C)(C(=O)OCC)CC2` (centres undefined) cannot be ordered by TGI: over 10 µM for the first, over 100 µM for the second.

Going from `CCOc1ccc(/C(Cl)=C(\C=O)c2ccc(OC)c(OC)c2)cc1OCC` to `CCOP(=O)(OCC)C(Nc1ccc(Br)cc1)c1cccc([N+](=O)[O-])c1` (centres undefined), the TGI falls from over 100 µM to 31.7 µM.

`COC(=O)C(C#CCCCCC#CC(NC(=O)OCc1ccccc1)(C(=O)OC)C(F)(F)F)(NC(=O)OCc1ccccc1)C(F)(F)F` (centres undefined) and `CCOC(=O)/C=C/n1c2ccccc2c(=O)c2ccccc21` cannot be ordered by TGI: over 100 µM for the first, over 100 µM for the second.

Compared with `COC(=O)CC1NC(=O)[C@@H]1C(C)O` (some centres undefined), `Cc1ccc(NC2=CC(=O)C(NO)c3ccccc32)cc1` (centres undefined) is lower in TGI: over 100 µM for the first, 10.4 µM for the second.

`O=C1c2ccccc2OP(=O)(OCC(F)(F)F)OC1(C(F)(F)F)C(F)(F)F` (centres undefined) and `COc1ccc(N=Cc2ccc(N(CCC#N)S(=O)(=O)c3ccccc3)cc2)cc1` cannot be ordered by TGI: over 100 µM for the first, over 100 µM for the second.

`Nc1nc(SCc2ccc([N+](=O)[O-])cc2)nc2c1ncn2C1OC(CO)C(O)C1O` (centres undefined) gave a TGI of over 100 µM.

Each compound was assayed on HL-60(TB) leukemia (assay: inhibition of tumour cell growth, NCI panel, 48 h).

`Cc1ccc(N2C(=O)CS/C2=C(\C#N)c2nc3ccccc3[nH]2)cc1` and `N#C/C(c1nc2ccccc2[nH]1)=c1\s/c(=C/c2ccc(Cl)cc2)c(=O)n1-c1ccccc1` cannot be ordered by TGI: over 100 µM for the first, over 100 µM for the second.

`CN1CNc2nc(N)n(C)c(=O)c2C1` and `CCOC(=O)c1c(N)sc2c1C(C)(C(=O)OCC)CC2` (centres undefined) cannot be ordered by TGI: over 10 µM for the first, over 100 µM for the second.

`CCOc1ccc(/C(Cl)=C(\C=O)c2ccc(OC)c(OC)c2)cc1OCC` and `CCOP(=O)(OCC)C(Nc1ccc(Br)cc1)c1cccc([N+](=O)[O-])c1` (centres undefined) are within 1.5-fold of each other in TGI: 62.7 µM for the first, 55.1 µM for the second.

`COC(=O)C(C#CCCCCC#CC(NC(=O)OCc1ccccc1)(C(=O)OC)C(F)(F)F)(NC(=O)OCc1ccccc1)C(F)(F)F` (centres undefined) and `C=CCC(N(C)C(=O)[C@H](Cc1ccccc1)NC(=O)OCc1ccccc1)P(=O)(Oc1ccccc1)Oc1ccccc1` (some centres undefined) cannot be ordered by TGI: over 100 µM for the first, over 100 µM for the second.

`COC(=O)CC1NC(=O)[C@@H]1C(C)O` (some centres undefined) and `CCOC(=O)/C=C/n1c2ccccc2c(=O)c2ccccc21` cannot be ordered by TGI: over 100 µM for the first, over 100 µM for the second.

Compared with `O=C1c2ccccc2OP(=O)(OCC(F)(F)F)OC1(C(F)(F)F)C(F)(F)F` (centres undefined), `Cc1ccc(NC2=CC(=O)C(NO)c3ccccc32)cc1` (centres undefined) is lower in TGI: over 100 µM for the first, 4.73 µM for the second.

`COc1ccc(N=Cc2ccc(N(CCC#N)S(=O)(=O)c3ccccc3)cc2)cc1` and `Nc1nc(SCc2ccc([N+](=O)[O-])cc2)nc2c1ncn2C1OC(CO)C(O)C1O` (centres undefined) cannot be ordered by TGI: over 100 µM for the first, over 100 µM for the second.
